Tested on: colonocytes
Experiment: In situ apoptosis (TUNEL assay), apoptotic index
Format: in vivo, rat
Conditions: pectin intake compared to cellulose intake, ACF/promotion stage, radiation study
Experimental: Apoptosis was measured by the binding of TdT-mediated UTP-biotin nick end labeling (TUNEL assay) to fragmented pieces of DNA using sections (4 μm) of PFA-fixed, paraffin-embedded tissue. Apoptotic cells with condensed chromatin, apoptotic bodies and intense brown staining were counted in 50 crypt columns for each animal. The apoptotic index is 100 times the mean number of apoptotic cells per crypt column divided by the total number of cells per crypt column. Chang et al., “Predictive value of proliferation, differentiation and apoptosis as intermediate markers for colon tumorigenesis” Carcinogenesis 18:721-730 (1997).
Data were analyzed using ANOVA to determine the effect of diet (FO/P vs. CO/C) on apoptosis, high multiplicity ACF, and proliferative zone (SAS Institute Inc.). Colon tumor incidence was analyzed by Chi square analysis and reported as percentage of rats bearing tumors (SAS Institute Inc.).

pectin
apoptosis: induced apoptosis
apoptosis (listed as Pectin): induced the levels of apoptosis

Source: US20100272824A1, “COMPOSITIONS AND METHODS FOR PREVENTING AND MONITORING DISEASE” (The Texas A&M University System, priority 2009, published 2010)
